The results in this text go back to article PMC13267113 (npj Drug Discovery, 2025).

For one data set, the system named is Huh-7.5 (human, liver). The data set is described as follows: MTT cytotoxicity Huh-7.5. As to conditions: Huh7.5, 72 h, n = 3. The format is cell-based. The method, then:
(§1) All cell types were cultivated at 37 °C with 5% CO2. HepG2, HEK293, HCT116, CHO-K1, HeLa-CCL-2 and Huh-7.5 were purchased from ATCC. The respective cell media (Gibco) were supplemented with 10% FBS (Gibco) before usage. Cells were used between passages #5 and #30. To obtain biological repeats, cells were split separately for at least two passages.
(§2) Cells were washed with PBS and 0.5 mL trypsin was added. Afterwards, cells were incubated for 5 min before adding 10 mL medium containing 10% FBS. Per well, 120 µL cell suspension (5 × 10^4 cells/mL) was seeded in transparent 96-well cell bind plates and incubated for 2 h (37 °C, 5% CO2). A dilution series (1:3) of test compounds was prepared in respective media containing 10% FBS and added (60 µL) to the prepared cell plate. Cells were incubated for a further 72 h (37 °C, 5% CO2). Next, 20 µL MTT (5 mg/mL in PBS) was added to each well and incubated for 2 h (37 °C, 5% CO2). The wells were emptied and 100 µL isopropanol/10 N HCl (1000:4) per well was added.
(§3) The plates were analyzed by measuring the absorbance at 570 nm (plate reader Infinite® 200 Pro, Tecan). After normalization of data to the respective solvent controls, the calculated percentage of growth inhibition was plotted using GraphPad Prism software (version 10.0.2).

The subject of data set [1] is U2OS (human, osteosarcoma). Description: MTT cytotoxicity U2OS. The format is cell-based. To be noted: 72 h, n = 3. The method, then: as §2, §3
The subject of the next data set is HeLa (human, cervix). The data set is described as follows: MTT cytotoxicity HeLa. As to conditions: 72 h, n = 3. The format is cell-based. The method, then:
as §1, §2, §3

A short description of a further data set: Mouse plasma stability. The format is in vitro ADME. To be noted: read-out: Mouse plasma t1/2.
Data set [2] deals with T1, scavenger receptor class B member 1 (SCARB1) (Homo sapiens, UniProt Q8WTV0).
T1 construct: endogenous in cells; host or cells: HepG2
T1 sequence (Q8WTV0 1-509 isoform Q8WTV0-2): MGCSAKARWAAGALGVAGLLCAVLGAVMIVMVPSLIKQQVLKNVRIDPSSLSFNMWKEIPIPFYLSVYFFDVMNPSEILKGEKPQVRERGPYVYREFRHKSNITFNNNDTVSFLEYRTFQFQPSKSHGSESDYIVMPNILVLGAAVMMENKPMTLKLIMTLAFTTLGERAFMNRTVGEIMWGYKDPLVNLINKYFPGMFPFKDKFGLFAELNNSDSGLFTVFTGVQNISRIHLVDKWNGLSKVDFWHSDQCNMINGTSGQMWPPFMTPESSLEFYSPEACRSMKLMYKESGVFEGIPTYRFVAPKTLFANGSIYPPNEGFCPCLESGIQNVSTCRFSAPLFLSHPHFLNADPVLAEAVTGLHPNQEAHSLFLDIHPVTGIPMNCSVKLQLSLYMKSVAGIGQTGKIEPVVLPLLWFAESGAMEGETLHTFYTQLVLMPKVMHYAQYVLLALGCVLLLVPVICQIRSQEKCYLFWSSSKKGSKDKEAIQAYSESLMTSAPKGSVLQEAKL
Description: Affinity-based protein profiling (AfBPP), SCARB1. The format is binding. As to conditions: 12.5 µM pre-treatment before Cysto-354 (2.5 µM), HepG2, n = 4. The method, then: Cells were seeded in 100 mm cell-bind petri dishes with a concentration of 2.8 × 10^6 cells per sample and incubated (37 °C, 5% CO2) for 3 days to reach ~80% confluence. Cells were washed with warm PBS prior to compound addition. Compound solutions as well as the DMSO control were generally added as freshly prepared solutions in pre-warmed, serum-free culture medium. Affinity-based proteome profiling was performed by treating the respective cell line with Cysto-354 (2.5 µM) for 3 h. For competition samples, cells were treated with CN-861-2 (12.5 µM) for 1 h, prior to addition of photo-probe Cysto-354 (2.5 µM) for 3 h incubation time. Control samples were treated with DMSO. Afterwards, cells were UV-irradiated for 10 min on ice, scraped off and transferred to Eppendorf tubes for washing with 1 mL cold PBS (centrifuge 5 min, 500g, 4 °C). The cell pellet was stored at −80 °C until lysis. Further sample preparation was done as previously described. […]
Peptides were measured and online-separated using an UltiMate 3000 nano HPLC system (Dionex) coupled to a Bruker timsTOF Pro mass spectrometer via a CaptiveSpray nano-electrospray ion source and Sonation column oven. […]
MS raw data was analyzed using MaxQuant software (version 2.0.3.0) and peptides were searched against Uniprot database for Homo sapiens (taxon identifier: 9606, downloaded on 11.03.2022, canonical, reviewed). […]

A word on the IC50: it is the concentration at which inhibition is half-maximal.

Regarding `CO[C@H](C(N)=O)[C@H](NC(=O)c1ccc(NC(=O)c2ccc(C#N)cc2)cc1)C(=O)Nc1ccc(C(=O)Nc2ccc(C(=O)Nc3ccc(C(=O)O)cc3)c(O)c2OC(C)C)cc1` [CN-861-2], the IC50 with Huh-7.5 (human, liver) was above 20 µM; in data set [1], above 20 µM; in the data set with HeLa (human, cervix), above 37 µM. The half-life in “Mouse plasma stability” is above 4 h. Besides, the “competition of SCARB1 enrichment” value in data set [2] is “significant competition”.
